Columns and labels:
[1] = system: blood glucose levels; assay: Decrease in % blood glucose levels after intra-gastric administration; format: in vivo, Male Sprague Dawley rats; details: 50 IU/kg
[2] = system: blood glucose levels; assay: Decrease in % blood glucose levels after intra-ileal administration; format: in vivo, Male Sprague Dawley rats; details: 50 IU/kg
[3] = system: blood glucose levels; assay: % blood glucose decrease after intranasal administration; format: in vivo, Male Sprague Dawley rats; details: for Tmax of % blood glucose decrease: sampling times in minutes
Method: The cannulation of the carotis communis artery for the collection of blood samples was also performed as described in Example 1 as was the determination of plasma levels and blood glucose levels.

[4] = rat, in vivo
Method: Male Sprague Dawley rats with a body mass of between 240 and 336 g were used as experimental in vivo model to investigate the absorption and efficacy enhancing capabilities of the current invention.
In this study, insulin was directly administered into the stomach, ileum or duodenum of the animals. […] Six animals were used for each group in the study. Rats were fasted 18 hours prior to drug administration but water was supplied ad libitum. […] The conditions under which the rats were bred and kept were 21° C. with a relative humidity of 55%, a light intensity of between 350-400 lux one meter above floor level with light cycles of 12 hours light and 12 dark and 18 air changes per minute.
Subcutaneous injection of insulin in one group was used to validate assaying procedures. The normal rat glucose and insulin profile was determined in a group that received only saline; this group acted as biological reference.
Cannulation of the artery carotis communis, ensured that sufficient blood volumes from the same rat at different time intervals could be obtained for analysis. Anaesthesia was induced by halothane and lasted for ±3 hours. All surgical procedures necessary for the cannulation of the carotis communis were carried out while the rats were under anaesthesia. […]

Substance: Insulin in saline: Control: recombinant human insulin (Sigma-Aldrich) in saline solution without any enhancing agent
- AUC, decrease in the % of blood glucose levels [1]: 275.5
- Tmax, decrease in the % of blood glucose levels [1]: 30 min
- AUC, decrease in the % of blood glucose levels [2]: 13.81
- Tmax, decrease in the % of blood glucose levels [2]: 10 min
- AUC of % blood glucose decrease ([3]; 8 IU/kg): 46
- Cmax of % blood glucose decrease ([3]; 8 IU/kg): 10.03%
- Tmax of % blood glucose decrease ([3]; 8 IU/kg): 15
- % blood glucose decrease ([3]; 8 IU/kg, time 0 min): 0%
- % blood glucose decrease ([3]; 8 IU/kg, time 5 min): −1.18%
- % blood glucose decrease ([3]; 8 IU/kg, time 10 min): 5.58%
- % blood glucose decrease ([3]; 8 IU/kg, time 15 min): 10.033%
- % blood glucose decrease ([3]; 8 IU/kg, time 30 min): 5.27%
- % blood glucose decrease ([3]; 8 IU/kg, time 60 min): 3.47%
- % blood glucose decrease ([3]; 8 IU/kg, time 120 min): 2.05%
- % blood glucose decrease ([3]; 8 IU/kg, time 180 min): −26.58%
- AUC of % blood glucose decrease ([3]; 12 IU/kg): 32.2
- Cmax of % blood glucose decrease ([3]; 12 IU/kg): 6.48%
- Tmax of % blood glucose decrease ([3]; 12 IU/kg): 5
- % blood glucose decrease ([3]; 12 IU/kg, time 0 min): 0%
- % blood glucose decrease ([3]; 12 IU/kg, time 5 min): 6.48%
- % blood glucose decrease ([3]; 12 IU/kg, time 10 min): −0.08%
- % blood glucose decrease ([3]; 12 IU/kg, time 15 min): −4.4%
- % blood glucose decrease ([3]; 12 IU/kg, time 30 min): −8.32%
- % blood glucose decrease ([3]; 12 IU/kg, time 60 min): −13.98%
- % blood glucose decrease ([3]; 12 IU/kg, time 120 min): −30.7%
- % blood glucose decrease ([3]; 12 IU/kg, time 180 min): −40.55%
- Tmax [4]: 5 min
